{"source": "patent US20200338012A1", "about": "(TAHO Pharmaceuticals Ltd., priority 2019, published 2020)", "origin": "cited, not measured here", "key": {"[1]": {"conditions": "oral tablet"}}, "data": [{"smiles": "COc1ccc(-n2nc(C(N)=O)c3c2C(=O)N(c2ccc(N4CCCCC4=O)cc2)CC3)cc1", "note": "[apixaban, Apixaban]", "values": [{"measurement": "water solubility", "value": 67.9, "unit": "µg/mL"}, {"measurement": "bioavailability", "setting": "[1]", "value": 50, "unit": "%"}]}]}
